Data as given in US20230060040A1, “USE OF TRANSFERRIN, TRANSFERRIN RECEPTOR AND ANTIBODY THEREOF IN PREPARATION OF ANTI-SARS-CoV-2 DRUG” (KUNMING INSTITUTE OF ZOOLOGY, CHINESE ACADEMY OF SCIENCES, priority 2020, published 2023).
Where “and” joins values, the source holds several entries; their conditions need not be identical. Identical values can stand only once. Like-named read-outs stand apart in the source and are kept apart here.

How the values were obtained:
SARS-CoV-2 [1] = assay type: cell-based; conditions: Vero E6 cells, different concentrations, 48 h
SARS-CoV-2 [2] = assay type: cell-based; conditions: read-out: EC50 by qRT-PCR
SARS-CoV-2 [3] = assay type: cell-based
SARS-CoV-2 spike protein = SARS-CoV-2 spike protein (Severe acute respiratory syndrome coronavirus 2, UniProt P0DTC2); conditions: SPR, spike protein 3.90625-250 nM, immobilized transferrin receptor

Substance | inhibition of SARS-CoV-2 infection (SARS-CoV-2 [1]) | EC50 (SARS-CoV-2 [2]) | EC50 (SARS-CoV-2 [3]; read-out: EC50 by CPE analysis) [nM] | EC50 (SARS-CoV-2 [3]; read-out: EC50 calculated by CPE) | binding of SARS-CoV-2 spike protein to transferrin receptor (SARS-CoV-2 spike protein)
transferrin: main iron-containing plasma single-chain glycoprotein, purchased from Sigma, catalog number T4382 | could inhibit SARS-CoV-2 infection | 160 nM | 125 | 80 nM and 50 nM | –
transferrin receptor: transferrin receptor protein purchased from Sino Biological, catalog number 11020-H07H | could inhibit SARS-CoV-2 infection | 93 nM and 50 nM | 80 | – | strong binding capacity
